The text below walks through data of ChEMBL document CHEMBL5154942, “Discovery of Clinical Candidate NTQ1062 as a Potent and Bioavailable Akt Inhibitor for the Treatment of Human Tumors” (J Med Chem, 2022).

Calls of active or inactive are those of the source. The rule behind the calls is not given here.

Series [1] in a line: Tmax in Sprague-Dawley rat at 10 mg/kg, ig by UPLC-MS/MS analysis. Type of series: ADME, organism-based. The following applies: in vivo, po, time < 24 hrs.
Series [2] concerns LNCaP. The series can be described thus: Induction of cell cycle arrest in human LNCap cells assessed as decrease in accumulation at G2/M phase at 0.04 to 1 uM incubated for 24 hrs by flow cytometry. Type of series: functional, cell-based. The following applies: dose 0.04-1 µM. (A flow cytometer gives signals particle by particle.)
Series [3] can be described thus: AUC (0 to t) in NCG mouse xenografted with human LNCaP cells at 50 mg/kg administered daily once for 18 to 21 days and measured upto 10 hrs post last dose by LC-MS/MS analysis. The format is ADME, organism-based. On the set-up: dose 50 mg/kg, time 18-21 day. As to conditions: in vivo.
Series [4] has as its system LNCaP. The series can be described thus: In vivo inhibition of AKT in human LNCaP cells xenografted in NCG mouse assessed as reduction in PRAS40 phosphorylation at 50 mg/kg administered for 21 days and measured after 4 hrs post last dose by Western blot analysis. The format is functional, organism-based. The following applies: time 21.0 day.
Series [5] in a line: Half life in crab-eating monkey at 3 mg/kg, iv measured upto 24 hrs by UPLC-MS/MS analysis. The following applies: cynomolgus monkey, in vivo. Type of series: ADME, organism-based, Macaca fascicularis.
The nature of series [6]: Tmax in NCG mouse xenografted with human LNCaP cells at 12.5 mg/kg administered once daily for 18 to 21 days and measured upto 10 hrs post last dose by LC-MS/MS analysis. Type of series: ADME, organism-based. As to conditions: in vivo, time 18-21 day. For orientation: A xenograft is tissue or cells of one species grown in another, often human tumour cells in immunodeficient mice.

Series [7] can be described thus: Metabolic stability in human liver microsomes assessed hepatic clearance at 1 uM measured after 60 mins by LC-MS/MS analysis. Type of series: ADME, Microsome. As to conditions: 1 h. In general terms: Microsomes from liver hold many membrane-bound enzymes, among them those of drug oxidation.
In another series the target is Cytochrome P450 2C19 (Homo sapiens, UniProt P33261). The series can be described thus: Inhibition of CYP2C19 in human liver microsomes at 0.01 to 30 uM using mephenytoin as substrate in presence of NADPH by UPLC-MS/MS analysis. Type of series: ADME, Microsome.
Sequence of Cytochrome P450 2C19 (P33261 whole entry): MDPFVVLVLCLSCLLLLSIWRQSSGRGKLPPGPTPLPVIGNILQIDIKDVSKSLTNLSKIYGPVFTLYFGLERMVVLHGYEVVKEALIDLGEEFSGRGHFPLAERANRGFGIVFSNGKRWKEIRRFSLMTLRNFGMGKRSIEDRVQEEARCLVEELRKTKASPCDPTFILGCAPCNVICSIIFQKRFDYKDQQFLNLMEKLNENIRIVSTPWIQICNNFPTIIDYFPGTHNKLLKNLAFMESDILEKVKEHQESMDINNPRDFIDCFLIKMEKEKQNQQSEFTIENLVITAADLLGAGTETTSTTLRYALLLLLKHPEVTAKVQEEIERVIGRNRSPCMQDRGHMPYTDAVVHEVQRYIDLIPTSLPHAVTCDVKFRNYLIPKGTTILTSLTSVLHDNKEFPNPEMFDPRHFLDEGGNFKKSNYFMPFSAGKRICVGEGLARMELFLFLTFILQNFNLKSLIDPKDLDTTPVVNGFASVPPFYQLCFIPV
For series [8], the system named is LNCaP. The series can be described thus: Induction of apoptosis in human LNCaP cells assessed as viable cells at […] incubated for 72 hrs by annexin V/PI double staining based flow cytometry method (reference value: 93.63 %). The format is functional. As to conditions: read-out: Activity.
Series [9] concerns LNCaP. The series can be described thus: Antitumor activity against human LNCaP cells xenografted in NCG mouse assessed as tumor growth inhibition at 25 mg/kg administered once daily for 18 to 21 days relative to control. Type of series: functional. The following applies: time 18-21 day, read-out: TGI.
Series [10] is described as follows: Metabolic stability in human […] liver microsomes assessed as half life at 1 uM measured after 60 mins by LC-MS/MS analysis. The format is ADME, Microsome.

As to `CC(C)NC[C@@H](C(=O)N1CCN(c2ncnc3c2[C@H](C)CC(=O)N3)[C@H]2C[C@H]21)c1ccc(Cl)cc1`, the time to peak (Tmax) in series [1] and in series [6] was 2 h in each case. Moreover, the outcome with LNCaP [2] and in the series on LNCaP [4] was Active. The same compound displayed an AUC(0-t) in series [3] of 22000 ng·h/mL. The compound also gave a half-life in series [5] of 7.73 h. For the same compound, the CLH in series [7] worked out at 8.96 mL/min/kg. Moreover, the IC50 at Cytochrome P450 2C19 is over 50 µM. The viability at […] turned out to be 79.7% in the series with LNCaP [8] (dose 0.62 µM) and 55% with LNCaP [8] (dose 2.5 µM). Besides, the inhibition in vivo at 25 mg/kg in the series on LNCaP [9] was 95.5%. Besides, the half-life at 1 µM in [10] is 1.52 h.

One may read the Tmax as the time at which the peak concentration occurs. In general, AUC(0-t) refers to exposure summed from dosing to a finite time, without extrapolation to infinity. By half-life is commonly meant the time in which the quantity being followed falls by half. Broadly, the IC50 is the concentration that gives 50% inhibition.
